From ChEMBL document CHEMBL1124787, “Conformationally constrained congeners of 6-aryl-5-methyl-4,5-dihydro-3(2H)-pyridazinones active on the cardiovascular system: conformational studies by molecular mechanics calculations and 1H NMR spectroscopy” (1990)
Active and inactive are the calls of the source. The rule behind the calls is not given here.

Assays:
Mus musculus = experiment: Antithrombotic activity after oral administration in mouse was measured as protection vs control percent; format: functional
Cavia porcellus = species on record: Cavia porcellus; experiment: Inotropic activity evaluated in vitro in spontaneously beating guinea pig atria;IA-Inactive; format: functional
Rattus norvegicus = experiment: The dose (administered orally) that lowered blood pressure by 50 mmHg in conscious, spontaneously hypertensive rats (SHR) (peak effect); IA-Inactive; format: functional, organism-based

SMILES | Activity (Mus musculus) | pD2 (Cavia porcellus) | ED50 (Rattus norvegicus)
CC(=O)Nc1ccc2c(c1)CCC1CC(=O)NN=C21 (stereo not given) | 100 | – | –
CC(=O)Nc1ccc2c(c1)CCCC1CC(=O)NN=C21 (stereo not given) | 46 | inactive | inactive
Nc1ccc2c(c1)CCCC1CC(=O)NN=C21 (stereo not given) | 45 | inactive | inactive
CC(=O)Nc1ccc2c(c1)CC1CC(=O)NN=C21 (stereo not given) | 100 | – | –
Nc1ccc2c(c1)CC1CC(=O)NN=C21 (stereo not given) | 87 | – | –
Nc1ccc2c(c1)CCC1CC(=O)NN=C21 (stereo not given) | 73 | – | –
